Test results taken from patent publication US12479825B2, “Melanocortin subtype-2 receptor (MC2R) antagonists and uses thereof” (Crinetics Pharmaceuticals, Inc., priority 2019, dated 2025).

molecular target: T1, hMC2 receptor (Homo sapiens, UniProt Q01718); assay: hMC2 membrane binding assay ([125I]ACTH (1-39) Tyr23, SPA); conditions: crude hMC2R membranes from CRE-bla-CHO-K1 cells expressing hMC2 receptor and hMRAP; 0.2 nM [125I]ACTH (1-39) Tyr23; 1.5 hours at room temperature; read-out: MC2R binding potency
T1 construct: host or cells: CRE-bla-CHO-K1 cells, crude membrane fraction
T1 sequence (Q01718 whole entry): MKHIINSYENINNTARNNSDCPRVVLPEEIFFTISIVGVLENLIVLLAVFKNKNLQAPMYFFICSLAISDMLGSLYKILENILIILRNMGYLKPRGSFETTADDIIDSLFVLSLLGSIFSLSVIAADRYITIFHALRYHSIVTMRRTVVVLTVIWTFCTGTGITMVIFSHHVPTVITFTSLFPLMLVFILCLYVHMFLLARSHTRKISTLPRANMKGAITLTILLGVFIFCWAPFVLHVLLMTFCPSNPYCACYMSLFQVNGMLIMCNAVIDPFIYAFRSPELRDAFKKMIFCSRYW
T1 sequence (Q8TCY5 whole entry partner): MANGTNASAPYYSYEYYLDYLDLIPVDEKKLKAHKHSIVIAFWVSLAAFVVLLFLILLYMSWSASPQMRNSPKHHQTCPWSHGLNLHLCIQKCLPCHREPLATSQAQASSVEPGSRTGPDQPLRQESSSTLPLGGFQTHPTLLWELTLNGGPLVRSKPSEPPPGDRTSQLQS
Description: Crude membrane fractions are prepared from CRE-bla-CHO-K1 cells stably expressing hMC2 receptor and hMRAP accessory protein (Thermo Fisher). The cells are grown to 85-100% confluence on standard tissue culture dishes in GlutaMax DMEM growth media (Gibco) with following additives: 10% dialyzed FBS (Gemini), 0.1 mM NEAA (Gibco), 25 mM HEPES (Gibco), 5 μg/mL blasticidin (Goldbio), 100 μg/mL zeocin (Invitrogen), 600 μg/mL hygromycin (Goldbio). To prepare membranes, cells are scraped and collected in 1× Dulbecco's phosphate buffered saline (Corning) and then pelleted at 1000 RPM's. The cell pellet is reconstituted in membrane preparation buffer (20 mM HEPES, 6 mM MgCl2 and 1 mM EGTA, protease inhibitor tablets (Pierce) adjusted to pH 7.4), homogenized using a dounce homogenizer, and the resulting membrane fraction is pelleted by centrifugation at 12,000 RPM's. The membrane pellet is resuspended in membrane preparation buffer, snap freezed and stored at −80° C. for later use.
The hMC2 membrane binding assay utilizes the following components: radiolabel [^125I]ACTH (1-39) Tyr23 (PerkinElmer), wheat germ agglutinin coated PVT SPA beads (PerkinElmer), crude hMC2R membranes, and compounds. Briefly hMC2R membranes are incubated with SPA beads in binding assay buffer (50 mM HEPES, 5 mM MgCl2, 1 mM CaCl2, 0.2% BSA, protease inhibitor tablets (Pierce) adjusted to pH7.4) prior to assay initiation. A dose response of compound (the final concentration of compound is typically 0-10,000 nM), SPA membranes, and [^125I]ACTH (1-39) Tyr23 at a final concentration of 0.2 nM is plated in a 96-well assay plate and allowed to incubate 1.5 hours at room temperature. Assay plates are read using a Top Count NXT and Ki values for compounds are determined using a GraphPad Prism 6 non-linear regression analysis.

| Compound | Ki [µM] |
| --- | --- |
| 5-{cis-4-[4-chloro-2-(difluoromethyl)phenoxy]-2-cyclopropylpiperidin-1-yl}-2′-ethoxy-N-[(3R)-1-methylpyrrolidin-3-yl]-[2,3′-bipyridine]-6-carboxamide [2-7] | < 0.01 |
| CCOc1ncccc1-c1ccc(N2CC[C@H](Oc3ccc(C(F)(F)F)cc3C#N)C[C@@H]2C2CC2)c(C(=O)N[C@@H]2CCN(C)C2)n1 (mixture of isomers) [2-6, 5-{cis-4-[2-cyano-4-(trifluoromethyl)phenoxy]-2-cyclopropylpiperidin-1-yl}-2′-ethoxy-N-[(3R)-1-methylpyrrolidin-3-yl]-[2,3′-bipyridine]-6-carboxamide] | < 0.01 |
| CCOc1ncccc1-c1ccc(N2CC[C@H](Oc3ccc(C(F)(F)F)nc3C#N)C[C@@H]2C2CC2)c(C(=O)N[C@@H]2CCN(C)C2)n1 (mixture of isomers) [2-14, 5-(cis-4-{[2-cyano-6-(trifluoromethyl)pyridin-3-yl]oxy}-2-cyclopropylpiperidin-1-yl)-2′-ethoxy-N-[(3R)-1-methylpyrrolidin-3-yl]-[2,3′-bipyridine]-6-carboxamide] | < 0.01 |
| CCOc1ncccc1-c1ccc(N2CC[C@H](Oc3ccc(C(F)(F)F)nc3C#N)C[C@@H]2CC)c(C(=O)N[C@@H]2CCN(C)C2)n1 (mixture of isomers) [2-15, 5-(cis-4-{[2-cyano-6-(trifluoromethyl)pyridin-3-yl]oxy}-2-ethylpiperidin-1-yl)-2′-ethoxy-N-[(3R)-1-methylpyrrolidin-3-yl]-[2,3′-bipyridine]-6-carboxamide] | < 0.01 |
| CCOc1ncccc1-c1ccc(N2CC[C@H](Oc3ccc(C)cc3C#N)C[C@@H]2C2CC2)c(C(=O)N[C@@H]2CCN(C)C2)n1 (mixture of isomers) [2-16, 5-[cis-4-(2-cyano-4-methylphenoxy)-2-cyclopropylpiperidin-1-yl]-2′-ethoxy-N-[(3R)-1-methylpyrrolidin-3-yl]-[2,3′-bipyridine]-6-carboxamide] | < 0.01 |
| CCOc1ncccc1-c1ccc(N2CC[C@H](Oc3ccc(C)cc3C#N)C[C@@H]2CC)c(C(=O)N[C@@H]2CCN(C)C2)n1 (mixture of isomers) [2-17, 5-[cis-4-(2-cyano-4-methylphenoxy)-2-ethylpiperidin-1-yl]-2′-ethoxy-N-[(3R)-1-methylpyrrolidin-3-yl]-[2,3′-bipyridine]-6-carboxamide] | < 0.01 |
| CCOc1ncccc1-c1ccc(N2CC[C@H](Oc3ccc(C(F)(F)F)nc3C#N)C[C@@H]2CC)c(C(=O)N[C@@H]2CN3CCC2CC3)n1 (mixture of isomers) [2-19, N-[(3S)-1-azabicyclo[2.2.2]octan-3-yl]-5-(cis-4-{[2-cyano-6-(trifluoromethyl)pyridin-3-yl]oxy}-2-ethylpiperidin-1-yl)-2′-ethoxy-[2,3′-bipyridine]-6-carboxamide] | < 0.01 |
| CCOc1ccccc1-c1ccc(N2CC[C@H](Oc3ccc(Cl)cc3C#N)C[C@@H]2C)c(C(=O)N[C@@H]2CCN(C)C2)n1 (mixture of isomers) [2-24, 3-[cis-4-(4-chloro-2-cyanophenoxy)-2-methylpiperidin-1-yl]-6-(2-ethoxyphenyl)-N-[(3R)-1-methylpyrrolidin-3-yl]pyridine-2-carboxamide] | < 0.01 |
| CCOc1ncccc1-c1ccc(N2CC[C@H](Oc3ccc(F)cc3C#N)C[C@@H]2C2CC2)c(C(=O)N[C@@H]2CCN(C)C2)n1 (mixture of isomers) [2-25, 5-[cis-4-(2-cyano-4-fluorophenoxy)-2-cyclopropylpiperidin-1-yl]-2′-ethoxy-N-[(3R)-1-methylpyrrolidin-3-yl]-[2,3′-bipyridine]-6-carboxamide] | < 0.01 |
| CCOc1ncccc1-c1ccc(N2CC[C@@H](Oc3ccc(C(F)(F)F)cc3C#N)C[C@H]2CC)c(O[C@@H]2CCN(C)C2)n1 (mixture of isomers) [3-8, 2-{[rac-(2R,4R)-1-(2′-ethoxy-6-{[(3R)-1-methylpyrrolidin-3-yl]oxy}-[2,3′-bipyridin]-5-yl)-2-ethylpiperidin-4-yl]oxy}-5-(trifluoromethyl)benzonitrile] | 0.01 to 0.1 |
| CCOc1ncccc1-c1ccc(N2CC[C@@H](Oc3ccc(Cl)cc3C(F)(F)F)C[C@H]2CC)c(O[C@@H]2CCN(C)C2)n1 (mixture of isomers) [3-9, 5-[rac-(2R,4R)-4-[4-chloro-2-(trifluoromethyl)phenoxy]-2-ethylpiperidin-1-yl]-2′-ethoxy-6-{[(3R)-1-methylpyrrolidin-3-yl]oxy}-2,3′-bipyridine] | 0.01 to 0.1 |
| CCOc1ncccc1-c1ccc(N2CC[C@@H](Oc3ccc(C(F)(F)F)cc3C#N)C[C@H]2CC)c(C(=O)N[C@@H]2CCN(C)C2)n1 (racemic) [2-2, 5-[(cis*-4-[2-cyano-4-(trifluoromethyl)phenoxy]-2-ethylpiperidin-1-yl]-2′-ethoxy-N-[(3R)-1-methylpyrrolidin-3-yl]-[2,3′-bipyridine]-6-carboxamide] | < 0.01 |
| CCOc1ncccc1-c1ccc(N2CC[C@H](Oc3ccc(C(F)(F)F)cc3C#N)C[C@H]2C2CC2)c(C(=O)N[C@@H]2CCNC2)n1 (racemic) [2-3, 5-[trans*4-[2-cyano-4-(trifluoromethyl)phenoxy]-2-cyclopropylpiperidin-1-yl]-2′-ethoxy-N-[(3R)-pyrrolidin-3-yl]-[2,3′-bipyridine]-6-carboxamide] | 0.01 to 0.1 |
| CCOc1ncccc1-c1ccc(N2CC[C@H](Oc3ccc(C(F)(F)F)cc3C#N)C[C@H]2C2CC2)c(C(=O)N[C@@H]2CCN(C)C2)n1 (racemic) [2-4, 5-[trans*4-[2-cyano-4-(trifluoromethyl)phenoxy]-2-cyclopropylpiperidin-1-yl]-2′-ethoxy-N-[(3R)-1-methylpyrrolidin-3-yl]-[2,3′-bipyridine]-6-carboxamide] | < 0.01 |
| CCOc1ncccc1-c1ccc(N2CC[C@@H](Oc3ccc(C(F)(F)F)cc3C#N)C[C@H]2C2CC2)c(C(=O)N[C@@H]2CCNC2)n1 (racemic) [2-5, 5-[cis*4-[2-cyano-4-(trifluoromethyl)phenoxy]-2-cyclopropylpiperidin-1-yl]-2′-ethoxy-N-[(3R)-pyrrolidin-3-yl]-[2,3′-bipyridine]-6-carboxamide] | < 0.01 |
| CCOc1ncccc1-c1ccc(N2CC[C@@H](Oc3ccc(Cl)nc3C(F)(F)F)C[C@H]2C2CC2)c(C(=O)N[C@@H]2CCN(C)C2)n1 (racemic) [2-8, 5-[cis*-4-{[6-chloro-2-(trifluoromethyl)pyridin-3-yl]oxy}-2-cyclopropylpiperidin-1-yl]-2′-ethoxy-N-[(3R)-1-methylpyrrolidin-3-yl]-[2,3′-bipyridine]-6-carboxamide] | < 0.01 |
| CCOc1ccc(O[C@@H]2CCN(c3ccc(-c4cccnc4OCC)nc3C(=O)N[C@@H]3CCN(C)C3)[C@H](C3CC3)C2)c(C(F)(F)F)n1 (racemic) [2-13, 5-[cis*-2-cyclopropyl-4-{[6-ethoxy-2-(trifluoromethyl)pyridin-3-yl]oxy}piperidin-1-yl]-2′-ethoxy-N-[(3R)-1-methylpyrrolidin-3-yl]-[2,3′-bipyridine]-6-carboxamide] | < 0.01 |
| CCOc1ncccc1-c1ccc(N2CC[C@@H](Oc3ccc(C(F)(F)F)cc3C#N)C[C@H]2CC)c(C(=O)N[C@@H]2CN3CCC2CC3)n1 (racemic) [2-20, N-[(3S)-1-azabicyclo[2.2.2]octan-3-yl]-5-[cis*-4-[2-cyano-4-(trifluoromethyl)phenoxy]-2-ethylpiperidin-1-yl]-2′-ethoxy-[2,3′-bipyridine]-6-carboxamide] | < 0.01 |
| CCOc1ccccc1-c1ccc(N2CC[C@@H](Oc3ccc(C(F)(F)F)nc3C#N)C[C@H]2C)c(C(=O)N[C@@H]2CCN(C)C2)n1 (racemic) [2-23, 3-(cis*-4-{[2-cyano-6-(trifluoromethyl)pyridin-3-yl]oxy}-2-methylpiperidin-1-yl)-6-(2-ethoxyphenyl)-N-[(3R)-1-methylpyrrolidin-3-yl]pyridine-2-carboxamide] | < 0.01 |
| CCOc1ncccc1-c1ccc(N2CC[C@H](Sc3ccccc3C(F)(F)F)C[C@H]2CC)c(C(=O)N[C@@H]2CCN(C)C2)n1 (racemic) [5-1, rac-2′-ethoxy-5-[(2R,4S)-2-ethyl-4-{[2-(trifluoromethyl)phenyl]sulfanyl}piperidin-1-yl]-N-[(3R)-1-methylpyrrolidin-3-yl]-[2,3′-bipyridine]-6-carboxamide] | < 0.01 |
| CCOc1ncccc1-c1ccc(N2CC[C@H](S(=O)(=O)c3ccccc3C(F)(F)F)C[C@H]2CC)c(C(=O)N[C@@H]2CCN(C)C2)n1 (racemic) [5-2, rac-2′-ethoxy-5-[(2R,4S)-2-ethyl-4-[2-(trifluoromethyl)benzenesulfonyl]piperidin-1-yl]-N-[(3R)-1-methylpyrrolidin-3-yl]-[2,3′-bipyridine]-6-carboxamide] | 0.1 to 1 |
